From ChEMBL document CHEMBL6114997, “New curcumin derivative induces ferroptosis in MCF-7 cells through activating SLC7A11/GPX4 axis” (Bioorg Med Chem, 2025) come the findings set out here.

The subject of experiment [1] is MCF7. The experiment can be described thus: Induction of ferroptosis in human MCF7 cells assessed as decrease in GPX4 to beta-actin ratio at 1.5 to 3.0 micromol/L incubated for 24 hrs by Western blot analysis. Particulars: dose 1.5-3 µmol/L. The format is functional, cell-based. On the technique in general: A western blot detects proteins with antibodies after separation by electrophoresis.

Experiment [2] relates to MCF7. The experiment can be described thus: Induction of ferroptosis in human MCF7 cells assessed as decrease in SLC7A11 to GAPDH ratio at 1.5 to 3.0 micromol/L incubated for 24 hrs by Western blot analysis. In kind it is functional, cell-based. Particulars: dose 1.5-3 µmol/L.
A short description of experiment [3]: Potency index, ratio of cisplatin IC50 to test compound IC50 for antiproliferative activity against human HepG2 cells assessed as inhibition of cell growth by MTT assay. In kind it is functional.
Experiment [4] in a line: Potency index, ratio of cisplatin IC50 to test compound IC50 for antiproliferative activity against human MCF7 cells assessed as inhibition of cell growth by MTT assay. In kind it is functional. (In general: Formazan colour is commonly taken as a measure of viable cells.)
For the next experiment, the system named is A549. The experiment can be described thus: Antiproliferative activity against human A549 cells assessed as inhibition of cell growth by MTT assay. The format is functional, cell-based.
A further experiment deals with HeLa. Nature of the experiment: Antiproliferative activity against human HeLa cells assessed as inhibition of cell growth by MTT assay. The format is functional, cell-based.
Experiment [5] has as its system MCF7. The experiment can be described thus: Induction of ferroptosis in human MCF7 cells assessed as increase in MDA level at 1.5 micromol/L measured after 24 hrs by absorbance based analysis (reference value: 0.42 micromol/L). In kind it is functional. Particulars: dose 1.5 µmol/L.
Experiment [6] deals with MCF7. The experiment can be described thus: Induction of ferroptosis in human MCF7 cells assessed as decrease in GPX4 activity at 1.5 to 3.0 micromol/L by absorbance based analysis (reference value: 5.90 mU/mg). In kind it is functional. Particulars: dose 1.5-3 µmol/L.
In experiment [7] the test system is MCF7. Nature of the experiment: Induction of ferroptosis in human MCF7 cells assessed as change in GPX4 expression incubated for 24 hrs by Western blot analysis. In kind it is functional, cell-based. Particulars: dose 1.5-3 µmol/L.
The subject of experiment [8] is MCF7. Nature of the experiment: Antiproliferative activity against human MCF7 cells assessed as inhibition of cell growth by MTT assay. In kind it is functional, cell-based.
A short description of experiment [9]: Potency index, ratio of cisplatin IC50 to test compound IC50 for antiproliferative activity against human HT-29 cells assessed as inhibition of cell growth by MTT assay. In kind it is functional.
The next experiment has as its system HT-29. The experiment can be described thus: Antiproliferative activity against human HT-29 cells assessed as inhibition of cell growth by MTT assay. The format is functional, cell-based.
The test system of experiment [10] is MCF7. The experiment can be described thus: Induction of intracellular ROS level in human MCF7 cells incubated for 24 hrs by DCFH-DA staining based fluorescence microscopic analysis. Particulars: dose 1.5-3 µM. The format is functional, cell-based.
A further experiment deals with HepG2. Nature of the experiment: Antiproliferative activity against human HepG2 cells assessed as inhibition of cell growth by MTT assay. The format is functional, cell-based.
Experiment [11] in a line: Potency index, ratio of cisplatin IC50 to test compound IC50 for antiproliferative activity against human A549 cells assessed as inhibition of cell growth by MTT assay. The format is functional.
The test system of experiment [12] is MCF7. The experiment can be described thus: Induction of ferroptosis in human MCF7 cells assessed as increase in intracellular ferrous ion level by measuring increase in fluorescence at 1.5 to 3.0 micromol/L incubated for 24 hrs by ferroOrange probe based fluorescence microscopic analysis. Particulars: dose 1.5-3 µmol/L. The format is functional, cell-based.

Experiment [13] has as its system MCF7. The experiment can be described thus: Induction of intracellular ROS level in human MCF7 cells at 1.5 uM incubated for 24 hrs by DCFH-DA staining based fluorescence microscopic analysis (reference value: 4.66%). The format is functional.
The subject of experiment [14] is MCF7. The experiment can be described thus: Induction of ferroptosis in human MCF7 cells assessed as increase in MDA level at 3.0 micromol/L measured after 24 hrs by absorbance based analysis (reference value: 0.42 micromol/L). Particulars: dose 3 µmol/L. In kind it is functional.
The subject of experiment [15] is MCF7. Nature of the experiment: Induction of intracellular ROS level in human MCF7 cells at 3.0 uM incubated for 24 hrs by DCFH-DA staining based fluorescence microscopic analysis (reference value: 4.66%). The format is functional.
The nature of experiment [16]: Potency index, ratio of cisplatin IC50 to test compound IC50 for antiproliferative activity against human HeLa cells assessed as inhibition of cell growth by MTT assay. The format is functional.
A short description of experiment [17]: Antioxidant activity assessed as DPPH radical scavenging activity incubated for 30 mins in dark by absorbance based analysis. In kind it is functional. Background: Loss of DPPH colour is used to gauge radical scavenging.

Structures are written as SMILES. Active and inactive are the calls of the source. No cut-off for these calls is given here.

By IC50 is commonly meant the concentration that inhibits the measured activity by half.

Regarding `COc1cc(/C=C/C(=O)C(=Cc2cccs2)C(=O)/C=C/c2ccc(OCCO[N+](=O)[O-])c(OC)c2)ccc1OCCO[N+](=O)[O-]`, the outcome with MCF7 [1], in the experiment with MCF7 [2] and with MCF7 [12] was Active. Moreover, the “Ratio IC50” value in experiment [3], in [4], in experiment [9], in experiment [11] and in experiment [16] was “>=2” throughout. For the same molecule, the IC50 with A549 was determined as 1.03 µM; with HeLa, 6.78 µM; in the experiment with MCF7 [8], 1.39 µM; in the experiment on HT-29, 1.45 µM; with HepG2, 1.21 µM. The Activity in the experiment with MCF7 [5] was 0.84 µmol/L; in the experiment on MCF7 [6] it was 3.52 mU/mg; in the experiment on MCF7 [7] it was “Dose-dependent-effect”; in the experiment on MCF7 [10], “Dose-dependent-effect”; in the experiment on MCF7 [13], 12.5%; with MCF7 [14] it was 1.25 µmol/L. In the experiment on MCF7 [15], this molecule returned an Activity of 60.7%.

In the case of `COc1cc(/C=C/C(=O)C(=Cc2cccs2)C(=O)/C=C/c2ccc(OCCCCO[N+](=O)[O-])c(OC)c2)ccc1OCCCCO[N+](=O)[O-]`, the half-maximal inhibitory concentration (IC50) is 7.24 µM in the experiment with A549; more than 50 µM in the experiment with HeLa; 18.4 µM with MCF7 [8]; 10.2 µM with HT-29; 2.22 µM in the experiment with HepG2. Besides, the Activity entry in [17] is reported as “Weak_effect; Compound Showed Weak Effect Compared With Vitamin C”.

For `COc1cc(/C=C/C(=O)C(=Cc2cccs2)C(=O)/C=C/c2ccc(OCCCO[N+](=O)[O-])c(OC)c2)ccc1OCCCO[N+](=O)[O-]`, the concentration for half-maximal inhibition (IC50) in the experiment with A549 stood at 1.27 µM; with HeLa, 20.5 µM; in the experiment on MCF7 [8], 2.4 µM; in the experiment on HT-29 it was 1.81 µM; in the experiment on HepG2, 1.44 µM. Also, the Activity entry in experiment [17] was “Weak_effect; Compound Showed Weak Effect Compared With Vitamin C”.
